# Measurements reported in ChEMBL document CHEMBL3507680, “University of Dundee, Gates Library screen for HepG2 cell viability”.
# Experiment: Human HepG2 cell viability assay in 384 well format
# Assay type: toxicity, cell-based
# Parameters: dose 125 nL, time 70.5 hour; concentration not given beside the values
# Conditions: HepG2 cells, read-out: Inhibition
row,SMILES,cytotoxicity at 70.5 h
1,Cc1nc(C2CCCN(C(=O)c3ccco3)C2)no1 (configuration not stated),24%
2,CCC(O)CN1CCN(C(=O)c2ccnc(N(C)C)c2)CC1 (configuration not stated),-11.3%
3,CC(C)(C)c1nc(CN(Cc2cccs2)C2CCS(=O)(=O)C2)no1 (configuration not stated),-4.17%
4,CCNC(=O)[C@@H]1C[C@H](N)CN1Cc1ccc2cccc(Cl)c2n1,-7.99%
5,CC(C)c1nnc(CN2CCCC3(CC2)CN(C)C(=O)O3)o1 (configuration not stated),-3.73%
6,N[C@H]1CC[C@@H](Nc2nccc(CCC(F)(F)F)n2)CC1,-2.71%
7,O=C(c1cnccn1)N1C[C@@H]2CC[C@H](C1)N(C(=O)CCc1ccsc1)C2,-0.591%
8,CC(C)Oc1cc(N2CC[C@H](CO)[C@@H](O)C2)nc(N)n1,-8.74%
9,Cc1nc2c(c(=O)n1C)CCN(C(=O)CCc1ccccc1O)CC2,-6.87%
10,CNc1nc(N2C[C@H](NC(=O)CCOC)[C@@H](C3CC3)C2)nc2c1CCC2,-15.7%
11,O=C(COc1ccc2c(c1)OCO2)NCc1ccco1,-5.95%
12,Cc1c[nH]nc1C1CCN(C(=O)CC2CCCC2)C1 (configuration not stated),-6.41%
13,Cc1ccc(N2CCCC(NCc3nc(C)c(C)o3)C2)nn1 (configuration not stated),-14.3%
14,O=C(c1ccno1)N1CCCC(c2ncncc2-c2ccncc2)C1 (configuration not stated),-9.77%
15,Cc1nn(C)c2cnn(CCCNS(=O)(=O)Cc3ccccc3)c12,10.4%
16,CN(C)CC(=O)N1CCC2(CC1)COCCN(Cc1ccncc1)C2,-8.72%
17,COc1ccc(-n2nc(C(C)C)nc2COC(C)C)cc1,20.2%
18,CC1CN(C)CCN1C(=O)c1cccn1Cc1ccncc1 (configuration not stated),-0.0265%
19,CCOCc1ccc(CNc2nc(OC)ncc2Cl)cc1,-10.8%

row,SMILES,cytotoxicity at 70.5 h
1,NC(=O)c1cnn2c(C3CCN(CCO)CC3)ccnc12,-3.75%
2,c1csc(CN2CCCn3nnc(COCC4CC4)c3C2)n1,-11%
3,CN(Cc1cnn(C)c1)S(=O)(=O)N1CCc2ccccc2C1,7.8%
4,O=C(NCc1ccc(-n2cncn2)nc1)c1cnccn1,7.67%
5,O=C(Cc1ccc2c(c1)CCCC2)NCCc1ccccn1,-5.18%
6,CN(C)CCN1CCOCC2(C1)CN(Cc1nccs1)CCO2 (configuration not stated),16.3%
7,c1cnnc(N2CCCC2CNCc2nc3ccccc3o2)c1 (configuration not stated),-9.74%
8,CC(C)Nc1nc(N2CCCC2)nc2c1CN(c1ncc(F)cn1)CC2,-7.8%
9,Nc1ncc(CN2CCC(O)(c3ccccc3F)CC2)cn1,-2.71%
10,Cc1ccc(-c2nc(CCNC(=O)CCN3CCOC3=O)co2)cc1,-2.58%
11,Cn1ccc2ccc(C(=O)NC3CCOC(C)(C)C3)cc21 (configuration not stated),8.55%
12,CCCN(Cc1nccn1C)C(=O)c1cnn[nH]1,7.26%
13,CCc1nnc2n1CCN(Cc1csc(-c3ccsc3)n1)C2,-8.3%
14,CC(=O)N(C)CC(=O)NC1(c2ccc(Br)cc2)CC1,4.73%
15,Cc1c[nH]c(C2COCCN2C(=O)c2n[nH]c(=O)c3ccccc23)n1 (configuration not stated),-13.4%
16,CC(C)[C@@H]1CN(Cc2c[nH]nc2-c2ccc(F)cc2)C[C@H]1NS(C)(=O)=O,-2.13%
17,COC1(CNC(=O)c2ccsc2)CCSC1 (configuration not stated),-13%
18,CSCC(C)(O)CNC(=O)c1ccc(Br)cc1C (configuration not stated),-9.56%
19,CCn1ccnc1CN1CCN(Cc2cc(C#N)ccc2F)CC1,-3.57%

row,SMILES,cytotoxicity at 70.5 h
1,Fc1cnc(N2CCCC3(CCN(Cc4cccs4)C3)C2)nc1 (configuration not stated),-2.04%
2,CC(C)n1cnc(-c2nc(C(=O)NC3CC3)c3ccccn23)c1,-15.8%
3,CC(C)CC(=O)Nc1c(-c2ccc(F)cc2)ncn1C,9.48%
4,Cc1cnn(CC2CCCN2CC(=O)Nc2cc(C)nn2C)c1 (configuration not stated),9.7%
5,CC(C(=O)NC1CC1)S(=O)(=O)c1cc2c(cc1Cl)OCCO2 (configuration not stated),-8.64%
6,CC(C)Cc1cc(CNC(=O)C2CCCN(Cc3ccco3)C2)no1 (configuration not stated),-4.13%
7,COc1ccc(C(C#N)NC(=O)CC2=CCCCC2)c(OC)c1 (configuration not stated),-3.57%
8,Cc1nc(C)c(CNC(=O)N2CCN(c3ccc(Cl)cn3)CC2)s1,-3.03%
9,CC(C)(C)C(O)CN1CCN(C(=O)c2ccc3c(c2)COC3)CC1 (configuration not stated),10.4%
10,O=C(N1CCCC1)N1CCn2c(Cn3cccn3)cnc2C1,-0.231%
11,COc1cc(Br)c(CNC2CCCNC2=O)cc1OC (configuration not stated),-0.0651%
12,COC(=O)c1ccc(CNC2CC(=O)N(Cc3cccc(F)c3)C2)cc1 (configuration not stated),0.023%
13,COc1ncccc1NC(=O)NC1CCCN(c2ncccn2)C1 (configuration not stated),1.22%
14,Cc1csc(CN2CCC3(CC2)COC(COCC2CC2)C3)n1 (configuration not stated),-0.893%
15,Cc1ncsc1C(=O)NCCNC(=O)c1cccs1,-3.7%
16,O=C(Cn1ccc2c(Cl)cccc21)N1CCC2(CC1)OCCO2,-4.3%
17,CCc1ocnc1C(=O)N1CCCC1c1noc(C2CC2)n1 (configuration not stated),-9.72%
18,CCc1cnc(N2CC3(CCN(S(=O)(=O)C4CC4)C3)C2)nc1,-8.49%
19,COCC(=O)N(Cc1ccc2[nH]ccc2c1)C1CC1,-25.2%
